Values quoted from earlier work, collected in patent publication US12257323B2, “Modified wound dressings” (CONVATEC TECHNOLOGIES INC., priority 2016, dated 2025).

Assays:
Details in all cases: cited from earlier work
[1] = target: MMP-3 (Homo sapiens, UniProt P08254)
[2] = target: MMP-8 (Homo sapiens, UniProt P22894)
[3] = target: T1, MMP-1 (Homo sapiens, UniProt P03956)
T1 sequence (P03956 100-469): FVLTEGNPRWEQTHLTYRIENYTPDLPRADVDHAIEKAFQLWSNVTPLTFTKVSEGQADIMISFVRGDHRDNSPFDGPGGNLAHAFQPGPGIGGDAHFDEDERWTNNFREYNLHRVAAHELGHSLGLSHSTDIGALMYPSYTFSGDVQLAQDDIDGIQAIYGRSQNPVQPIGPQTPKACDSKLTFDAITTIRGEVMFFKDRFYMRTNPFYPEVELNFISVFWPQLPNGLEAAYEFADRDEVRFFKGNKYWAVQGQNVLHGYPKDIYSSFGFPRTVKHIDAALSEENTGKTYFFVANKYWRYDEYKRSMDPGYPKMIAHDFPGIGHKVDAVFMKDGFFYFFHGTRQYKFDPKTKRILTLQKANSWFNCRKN

[4] = target: T2, MMP-7 (Homo sapiens, UniProt P09237)
T2 sequence (P09237 95-267): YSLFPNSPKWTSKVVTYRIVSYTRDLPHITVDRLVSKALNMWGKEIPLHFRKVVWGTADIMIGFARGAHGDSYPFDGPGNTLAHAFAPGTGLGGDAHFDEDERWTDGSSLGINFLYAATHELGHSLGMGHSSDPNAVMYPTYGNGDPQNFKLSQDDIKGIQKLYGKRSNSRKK

[5] = target: MMP-9 (Homo sapiens, UniProt P14780)
Sequence of MMP-9 (P14780 94-707): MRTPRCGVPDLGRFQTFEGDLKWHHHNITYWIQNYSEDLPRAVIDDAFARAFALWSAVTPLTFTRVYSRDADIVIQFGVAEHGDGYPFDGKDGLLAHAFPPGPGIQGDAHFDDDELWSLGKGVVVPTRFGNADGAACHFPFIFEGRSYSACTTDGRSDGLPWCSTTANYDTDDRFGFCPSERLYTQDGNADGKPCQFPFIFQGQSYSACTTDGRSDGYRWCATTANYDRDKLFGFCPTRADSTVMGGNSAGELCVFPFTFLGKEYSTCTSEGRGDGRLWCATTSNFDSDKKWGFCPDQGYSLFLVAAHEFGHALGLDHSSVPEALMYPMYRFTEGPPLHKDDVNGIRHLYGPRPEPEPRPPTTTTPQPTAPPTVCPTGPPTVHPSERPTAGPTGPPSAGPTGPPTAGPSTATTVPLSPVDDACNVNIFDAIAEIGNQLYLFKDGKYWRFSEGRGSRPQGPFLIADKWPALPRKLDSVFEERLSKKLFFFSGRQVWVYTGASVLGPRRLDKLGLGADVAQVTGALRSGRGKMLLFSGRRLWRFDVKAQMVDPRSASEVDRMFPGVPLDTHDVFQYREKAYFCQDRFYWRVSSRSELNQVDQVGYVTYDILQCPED

[6] = target: T3, MMP-2 (Homo sapiens, UniProt P08253)
T3 sequence (P08253 110-660): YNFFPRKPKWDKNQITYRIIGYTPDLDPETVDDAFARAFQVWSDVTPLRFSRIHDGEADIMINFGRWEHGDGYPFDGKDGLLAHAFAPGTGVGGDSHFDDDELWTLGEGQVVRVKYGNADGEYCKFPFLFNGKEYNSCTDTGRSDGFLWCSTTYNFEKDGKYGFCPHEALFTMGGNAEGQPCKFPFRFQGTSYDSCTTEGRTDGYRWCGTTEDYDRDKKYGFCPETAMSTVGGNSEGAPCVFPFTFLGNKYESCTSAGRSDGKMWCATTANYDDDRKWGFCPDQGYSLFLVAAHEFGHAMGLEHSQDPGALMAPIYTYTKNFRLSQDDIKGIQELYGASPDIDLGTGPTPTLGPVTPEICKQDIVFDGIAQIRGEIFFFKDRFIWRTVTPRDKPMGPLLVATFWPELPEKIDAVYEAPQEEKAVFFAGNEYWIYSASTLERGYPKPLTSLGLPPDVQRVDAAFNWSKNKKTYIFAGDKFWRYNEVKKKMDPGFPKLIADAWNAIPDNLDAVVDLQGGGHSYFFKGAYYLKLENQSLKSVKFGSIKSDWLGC

Sequence of MMP-3 (P08254 100-477): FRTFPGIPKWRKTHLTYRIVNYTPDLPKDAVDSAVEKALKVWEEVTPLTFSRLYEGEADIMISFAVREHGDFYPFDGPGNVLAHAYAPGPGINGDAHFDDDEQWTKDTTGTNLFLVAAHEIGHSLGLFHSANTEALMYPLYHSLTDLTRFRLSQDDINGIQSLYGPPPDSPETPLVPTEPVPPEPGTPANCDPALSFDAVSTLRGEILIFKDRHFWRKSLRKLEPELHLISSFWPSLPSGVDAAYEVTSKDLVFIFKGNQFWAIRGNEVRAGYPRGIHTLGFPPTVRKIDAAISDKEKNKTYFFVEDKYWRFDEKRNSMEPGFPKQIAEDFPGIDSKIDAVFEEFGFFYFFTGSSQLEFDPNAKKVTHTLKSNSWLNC
Sequence of MMP-8 (P22894 101-467): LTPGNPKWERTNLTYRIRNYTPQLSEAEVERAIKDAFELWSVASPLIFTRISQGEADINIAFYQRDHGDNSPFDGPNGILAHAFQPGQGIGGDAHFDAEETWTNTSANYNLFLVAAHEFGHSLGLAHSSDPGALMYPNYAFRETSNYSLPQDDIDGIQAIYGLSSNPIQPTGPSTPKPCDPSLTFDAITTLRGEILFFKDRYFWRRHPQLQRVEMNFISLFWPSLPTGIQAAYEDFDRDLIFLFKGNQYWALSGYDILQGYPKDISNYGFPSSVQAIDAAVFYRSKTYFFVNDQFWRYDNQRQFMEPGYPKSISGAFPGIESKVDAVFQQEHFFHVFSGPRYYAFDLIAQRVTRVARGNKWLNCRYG

| Substance | Relative rate MMP-3 [1] | Relative rate MMP-8 [2] | Relative rate MMP-1 [3] | Relative rate MMP-7 [4] | Relative rate MMP-9 [5] | Relative rate MMP-2 [6] |
| --- | --- | --- | --- | --- | --- | --- |
| GIy-Pro-Gln-Gly4Ile-Arg-Gly-Gln | 250 | 170 | 180 | 270 | 200 | 180 |
| Gly-Ala-Gln-Gly#Ile-Ala-Gly-Gln (GAQGIAGQ; printed: Gly-Ala-Gln-Gly; printed: Ile-Ala-Gly-Gln) | 62 | 23 | 50 | – | 9.4 | 22 |
| Gly-Asn-Gln-Gly#Ile-Ala-Gly-Gln (GNQGIAGQ; printed: Gly-Asn-Gln-Gly; printed: Ile-Ala-Gly-Gln) | 68 | 45 | 17 | 25 | <5.0 | 60 |
| Gly-Pro-Asp-Gly#Ile-Ala-Gly-Gln (GPDGIAGQ; printed: Gly-Pro-Asp-Gly; printed: Ile-Ala-Gly-Gln) | 89 | 44 | 30 | 7.0 | 10 | 11 |
| Gly-Pro-Gln-Ala#Ile-Ala-Gly-Gln | 300 | 320 | 600 | 530 | 110 | 96 |
| Gly-Pro-Gln-Gln#Ile-Ala-Gly-Gln | 140 | 150 | 140 | 180 | 13 | 25 |
| Gly-Pro-Gln-Glu#Ile-Ala-Gly-Gln | 190 | 330 | 28 | 170 | 29 | 15 |
| Gly-Pro-Gln-Glv#Met-Ala-Gly-Gln | 60 | 84 | 110 | 89 | 170 | 230 |
| Gly-Pro-Gln-Gly#Arg-Ala-Gly-Gln | <4.9 | <0.5 | <0.5 | <5.0 | <5.0 | <5.0 |
| Gly-Pro-Gln-Gly#Gln-Ala-Gly-Gln | 38 | 10 | 28 | <5.0 | 20 | 34 |
| Gly-Pro-Gln-Gly#Glu-Ala-Gly-Gln | <0.5 | <0.5 | <0.5 | 8.0 | <5.0 | <5.0 |
| Gly-Pro-Gln-Gly#Ile-Ala-Ala-Gln | 280 | 120 | 220 | 300 | 140 | 180 |
| Gly-Pro-Gln-Gly#Ile-Ala-Arg-Gln | 490 | 34 | 55 | 220 | 45 | 35 |
| Gly-Pro-Gln-Gly#Ile-Ala-Gly His | 110 | 145 | 91 | 87 | 120 | 150 |
| Gly-Pro-Gln-Gly#Ile-Ala-Gly-Ala | 130 | 110 | 86 | 91 | 110 | 85 |
| Gly-Pro-Gln-Gly#Ile-Ala-Gly-Gln | 100 | 100 | 100 | 100 | 100 | 100 |
